From patent US5066783A, “Antiviral peptides and means for treating herpes infections” (priority 1988, dated 1991)
Where two headings read alike, the source gives them in different places. Where a SMILES comes first, the peptide text is derived from it. Where no end group is shown, it is not given here. [ ]: non-standard residue; d: D form. Phe(4-NO2) = N[C@@H](Cc1ccc([N+](=O)[O-])cc1)C(=O)O; Phe(4-NH2) = Nc1ccc(C[C@H](N)C(=O)O)cc1

Experiments:
[1] = molecular target: T1, herpes simplex viral ribonucleotide reductase (Human herpesvirus 1, UniProt P08543); assay: biochemical; assay type: biochemical, herpes simplex virus
T1 construct: endogenous in cells
T1 sequence (P08543 whole entry): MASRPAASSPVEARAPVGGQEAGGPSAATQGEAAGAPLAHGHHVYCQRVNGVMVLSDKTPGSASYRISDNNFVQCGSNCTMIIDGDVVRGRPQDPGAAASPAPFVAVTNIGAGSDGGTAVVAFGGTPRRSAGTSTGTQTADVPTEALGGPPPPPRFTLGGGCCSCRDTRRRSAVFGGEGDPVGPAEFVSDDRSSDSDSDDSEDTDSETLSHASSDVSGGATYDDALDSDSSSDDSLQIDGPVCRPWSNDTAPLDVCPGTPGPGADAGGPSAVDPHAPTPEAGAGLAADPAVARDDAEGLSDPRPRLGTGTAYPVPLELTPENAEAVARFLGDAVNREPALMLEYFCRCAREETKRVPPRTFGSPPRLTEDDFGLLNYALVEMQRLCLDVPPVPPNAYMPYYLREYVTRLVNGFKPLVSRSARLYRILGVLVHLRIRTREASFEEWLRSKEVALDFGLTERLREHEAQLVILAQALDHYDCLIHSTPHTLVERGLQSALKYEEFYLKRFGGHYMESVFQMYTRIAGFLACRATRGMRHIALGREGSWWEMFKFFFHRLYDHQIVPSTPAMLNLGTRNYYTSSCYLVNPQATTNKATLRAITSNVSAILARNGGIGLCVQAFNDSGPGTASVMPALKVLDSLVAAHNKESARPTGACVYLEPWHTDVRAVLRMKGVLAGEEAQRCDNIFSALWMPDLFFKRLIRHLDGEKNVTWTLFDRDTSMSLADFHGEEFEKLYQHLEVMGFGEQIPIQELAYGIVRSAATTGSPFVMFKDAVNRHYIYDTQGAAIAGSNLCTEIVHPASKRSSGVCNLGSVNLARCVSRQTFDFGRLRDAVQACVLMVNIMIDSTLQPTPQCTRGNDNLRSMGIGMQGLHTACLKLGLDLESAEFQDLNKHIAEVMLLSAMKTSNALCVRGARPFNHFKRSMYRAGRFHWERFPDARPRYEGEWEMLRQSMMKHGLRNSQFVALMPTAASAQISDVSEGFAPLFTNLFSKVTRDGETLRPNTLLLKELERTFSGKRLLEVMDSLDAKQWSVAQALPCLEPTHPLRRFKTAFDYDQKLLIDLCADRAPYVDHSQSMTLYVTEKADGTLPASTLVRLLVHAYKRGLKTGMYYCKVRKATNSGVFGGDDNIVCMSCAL

[2] = tested on: HSV-2 strain HG-52; assay: Guinea pig cutaneous herpes infection model, HSV-2; assay type: in vivo; conditions: HSV-2 group, mean score
[3] = tested on: HSV-1 strain MP-12; assay: Guinea pig cutaneous herpes infection model, HSV-1; assay type: in vivo; conditions: HSV-1 group, mean score
[4] = 75 μg enzyme preparation (21.6 units mg^-1), mean of four assays
[5] = read-out: IC50 (concentration producing 50% of the maximal inhibition of enzyme activity)

## CC[C@H](C)[C@H](NC(=O)[C@H](CC(=O)O)NC(=O)[C@H](CC(N)=O)NC(=O)[C@@H](NC(=O)[C@@H](NC(=O)[C@H](C)NC(=O)CNC(=O)[C@H](C)NC(=O)[C@H](Cc1ccc(O)cc1)NC(=O)[C@@H](N)Cc1ccc([N+](=O)[O-])cc1)C(C)C)C(C)C)C(=O)O [H--(4-NO2 -Phe)--Tyr--Ala--Gly--Ala--Val--Val--Asn--Asp--Ile--OH] (H-[Phe(4-NO2)]YAGAVVNDI-OH)
[1]; [4]
  IC50: 6.8 µM

## H-YAGTVINDL-OH [H--Tyr--Ala--Gly--Thr--Val--Ile--Asn--Asp--Leu--OH]
[1]; [4]
  IC50: 15 µM

## Ac-YGAVVNDL-OH [Ac--Tyr--Gly--Ala--Val--Val--Asn--Asp--Leu--OH]
[1]; [5]
  IC50: 150 µM

## Ac-Y(Ac)AGFVINDL [Ac--Tyr(OAc)--Ala--Gly--Phe--Val--Ile--Asn--Asp--Leu--OH]
[1]; [4]
  IC50: 14 µM

## H-YSGAVVNDL-OH [H--Tyr--Ser--Gly--Ala--Val--Val--Asn--Asp--Leu--OH]
[1]; [4]
  IC50: 90 µM

## H-YAVVNDL-OH [H--Tyr--Ala--Val--Val--Asn--Asp--Leu--OH]
[1]; [5]
  IC50: 340 µM

## Ac-YSGTVINDL-OH [Ac--Tyr--Ser--Gly--Thr--Val--Ile--Asn--Asp--Leu--OH]
[1]; IC50 (concentration producing 50% of the maximal inhibition of enzyme activity)
  IC50: 1.9 µM

## CC(C)C[C@H](NC(=O)[C@H](CC(=O)O)NC(=O)[C@H](CC(N)=O)NC(=O)[C@@H](NC(=O)[C@@H](NC(=O)[C@H](C)NC(=O)CNC(=O)[C@H](C)NC(=O)[C@@H](N)Cc1ccc(O)cc1)C(C)C)C(C)C)C(N)=O [H--Tyr--Ala--Gly--Ala--Val--Val--Asn--Asp--Leu--NH2]
[1]; [5]
  IC50: 190 µM

## H-HAGAVVNDL-OH [H--His--Ala--Gly--Ala--Val--Val--Asn--Asp--Leu--OH]
[1]; [4]
  IC50: 400 µM

## H-FAGAVVNDL-OH [H--Phe--Ala--Gly--Ala--Val--Val--Asn--Asp--Leu--OH]
[1]
  IC50: 68 µM

## Ac-YVVNDL-OH [Ac--Tyr--Val--Val--Asn--Asp--Leu--OH]
[1]
  IC50: 31 µM

## Nc1nc2c(ncn2COCCO)c(=O)[nH]1 [Acyclovir, acyclovir]
[2]; day 1, topical twice daily
  skin lesion score: 0.50
[2]; day 2, topical twice daily
  skin lesion score: 0.50
[2]; day 3, topical twice daily
  skin lesion score: 0.63
[2]; day 4, topical twice daily
  skin lesion score: 0.67
[2]; day 5, topical twice daily
  skin lesion score: 1.23
[2]; day 6, topical twice daily
  skin lesion score: 0.57
[2]; day 7, topical twice daily
  skin lesion score: 0.40
[2]; day 8, topical twice daily
  skin lesion score: 0.13
[2]; day 9, topical twice daily
  skin lesion score: 0.13
[2]; day 10, topical twice daily
  skin lesion score: 0.00
[2]; day 11, topical twice daily
  skin lesion score: 0.00
[3]; day 1, topical twice daily
  skin lesion score: 0.50
[3]; day 2, topical twice daily
  skin lesion score: 0.50
[3]; day 3, topical twice daily
  skin lesion score: 0.28
[3]; day 4, topical twice daily
  skin lesion score: 0.20
[3]; day 5, topical twice daily
  skin lesion score: 0.20
[3]; day 6, topical twice daily
  skin lesion score: 0.20
[3]; day 7, topical twice daily
  skin lesion score: 0.15
[3]; day 8, topical twice daily
  skin lesion score: 0.00
[3]; day 9, topical twice daily
  skin lesion score: 0.00
[3]; day 10, topical twice daily
  skin lesion score: 0.00
[3]; day 11, topical twice daily
  skin lesion score: 0.00

## CC(=O)N[C@H](Cc1ccc(O)cc1)C(=O)N[C@@H](C)C(=O)NCC(=O)N[C@@H](C)C(=O)N[C@H](C(=O)N[C@H](C(=O)N[C@@H](CC(N)=O)C(=O)N[C@@H](CC(=O)O)C(=O)N[C@@H](CC(C)C)C(=O)O)C(C)C)C(C)C [Ac--D--Tyr--Ala--Gly--Ala--Val--Val--Asn--Asp--Leu--OH]
[1]; [5]
  IC50: 165 µM

## H-YAPAVINDL-OH [H--Tyr--Ala--Pro--Ala--Val--Ile--Asn--Asp--Leu--OH]
[1]
  IC50: 37 µM

## CC[C@H](C)[C@H](NC(=O)[C@@H](NC(=O)[C@H](Cc1ccc(OC)cc1)NC(C)=O)C(C)C)C(=O)N[C@@H](CC(N)=O)C(=O)N[C@@H](CC(=O)O)C(=O)N[C@@H](CC(C)C)C(=O)O [Ac--Tyr(OMe)--Val--Ile--Asn--Asp--Leu--OH] (Ac-Y(Me)VINDL-OH)
[1]
  IC50: 24 µM

## Ac-YAGTIVNDL-OH [Ac--Tyr--Ala--Gly--Thr--Ile--Val--Asn--Asp--Leu--OH]
[1]
  IC50: 4.9 µM

## H-YAGAVVNDI-OH [H--Tyr--Ala--Gly--Ala--Val--Val--Asn--Asp--Ile--OH]
[1]
  IC50: 110 µM

## COc1ccc(C[C@H](NC(C)=O)C(=O)N[C@@H](C)C(=O)NCC(=O)N[C@@H](C)C(=O)N[C@H](C(=O)N[C@H](C(=O)N[C@@H](CC(N)=O)C(=O)N[C@@H](CC(=O)O)C(=O)N[C@@H](CC(C)C)C(=O)O)C(C)C)C(C)C)cc1 [Ac--Tyr(OMe)--Ala--Gly--Ala--Val--Val--Asn--Asp--Leu--OH]
[1]; read-out: IC50 (concentration producing 50% of the maximal inhibition of enzyme activity), 75 μg enzyme preparation (21.6 units mg^-1), mean of four assays
  IC50: 40 µM

## Ac-YAGFVINDL-OH [Ac--Tyr--Ala--Gly--Phe--Val--Ile--Asn--Asp--Leu--OH]
[1]; [4]
  IC50: 4.2 µM

## CC[C@H](C)[C@H](NC(=O)[C@H](CC(=O)O)NC(=O)[C@H](CC(N)=O)NC(=O)[C@@H](NC(=O)[C@@H](NC(=O)[C@H](C)NC(=O)CNC(=O)[C@H](C)NC(=O)[C@H](Cc1ccc(O)cc1)NC(=O)[C@@H](N)Cc1ccc(N)cc1)C(C)C)C(C)C)C(=O)O [H--(4-NH2 -Phe)--Tyr--Ala--Gly--Ala--Val--Val--Asn--Asp--Ile--OH] (H-[Phe(4-NH2)]YAGAVVNDI-OH)
[1]; [4]
  IC50: 15 µM
